Reference: the NIST ThermoML archive (doi:10.1016/j.jct.2018.12.014)
± gives the expanded uncertainty stated by the source.

What was measured:
[1] = wn = mass fraction of the nth substance listed; details: 101 kPa, Liquid, Vibrating tube method, w2 = 0
[2] = refractive index (Na D-line) (dimensionless); wn = mass fraction of the nth substance listed; details: 101 kPa, Liquid, Standard Abbe refractometry, w2 = 0
[3] = 101 kPa, Liquid, Vibrating tube method
[4] = refractive index (Na D-line) (dimensionless); details: 101 kPa, Liquid, Standard Abbe refractometry

Structure (SMILES): CN(CCO)CCO [N-methyldiethanolamine] + C[P+](c1ccccc1)(c1ccccc1)c1ccccc1.[Br-]
- mass density ([1]; 293.15 K): 1040.31 ± 8.4 kg/m3
- mass density ([1]; 298.15 K): 1036.42 ± 8.3 kg/m3
- mass density ([1]; 303.15 K): 1032.55 ± 8.3 kg/m3
- mass density ([1]; 308.15 K): 1028.7 ± 8.3 kg/m3
- mass density ([1]; 313.15 K): 1025.14 ± 8.2 kg/m3
- mass density ([1]; 318.15 K): 1021.34 ± 8.2 kg/m3
- mass density ([1]; 323.15 K): 1017.55 ± 8.2 kg/m3
- mass density ([1]; 328.15 K): 1013.89 ± 8.2 kg/m3
- mass density ([1]; 333.15 K): 1010.07 ± 8.1 kg/m3
- mass density ([1]; 338.15 K): 1006.37 ± 8.1 kg/m3
- mass density ([1]; 343.15 K): 1002.33 ± 8.1 kg/m3
- mass density ([1]; 348.15 K): 998.62 ± 8 kg/m3
- mass density ([1]; 353.15 K): 995.05 ± 8 kg/m3
- refractive index ([2]; 293.15 K): 1.46942 ± 0.0042
- refractive index ([2]; 298.15 K): 1.46732 ± 0.0042
- refractive index ([2]; 303.15 K): 1.46498 ± 0.0042
- refractive index ([2]; 308.15 K): 1.46285 ± 0.0042
- refractive index ([2]; 313.15 K): 1.46099 ± 0.0042
- refractive index ([2]; 318.15 K): 1.45879 ± 0.0042
- refractive index ([2]; 323.15 K): 1.4568 ± 0.0042
- refractive index ([2]; 328.15 K): 1.45461 ± 0.0042
- refractive index ([2]; 333.15 K): 1.45252 ± 0.0042
- refractive index ([2]; 338.15 K): 1.45042 ± 0.0042
- refractive index ([2]; 343.15 K): 1.44855 ± 0.0042

Structure (SMILES): CN(CCO)CCO [N-methyldiethanolamine]
- mass density ([3]; 293.15 K): 1040.31 ± 8.4 kg/m3
- mass density ([3]; 298.15 K): 1036.42 ± 8.3 kg/m3
- mass density ([3]; 303.15 K): 1032.55 ± 8.3 kg/m3
- mass density ([3]; 308.15 K): 1028.7 ± 8.3 kg/m3
- mass density ([3]; 313.15 K): 1025.14 ± 8.2 kg/m3
- mass density ([3]; 318.15 K): 1021.34 ± 8.2 kg/m3
- mass density ([3]; 323.15 K): 1017.55 ± 8.2 kg/m3
- mass density ([3]; 328.15 K): 1013.89 ± 8.2 kg/m3
- mass density ([3]; 333.15 K): 1010.07 ± 8.1 kg/m3
- mass density ([3]; 338.15 K): 1006.37 ± 8.1 kg/m3
- mass density ([3]; 343.15 K): 1002.33 ± 8.1 kg/m3
- mass density ([3]; 348.15 K): 998.62 ± 8 kg/m3
- mass density ([3]; 353.15 K): 995.05 ± 8 kg/m3
- refractive index ([4]; 293.15 K): 1.46942 ± 0.0042
- refractive index ([4]; 298.15 K): 1.46732 ± 0.0042
- refractive index ([4]; 303.15 K): 1.46498 ± 0.0042
- refractive index ([4]; 308.15 K): 1.46285 ± 0.0042
- refractive index ([4]; 313.15 K): 1.46099 ± 0.0042
- refractive index ([4]; 318.15 K): 1.45879 ± 0.0042
- refractive index ([4]; 323.15 K): 1.4568 ± 0.0042
- refractive index ([4]; 328.15 K): 1.45461 ± 0.0042
- refractive index ([4]; 333.15 K): 1.45252 ± 0.0042
- refractive index ([4]; 338.15 K): 1.45042 ± 0.0042
- refractive index ([4]; 343.15 K): 1.44855 ± 0.0042
